In ChEMBL document CHEMBL1125860 (J Med Chem, 1991):
Active and inactive are the calls of the source. The calls are words filed in the database; no cut-off is given here.

How the values were obtained:
[1] = target: Aldo-keto reductase family 1 member B1 (Bos taurus) (UniProt P16116); experiment: In vitro % decrease of aldose reductase measured in isolated partially purified bovine lens preparations at 10e-7 M concentration
[2] = system: Rattus norvegicus; experiment: In vivo inhibition of galactitol accumulation in diaphragm of rat at 26 mg/kg/day; type: functional
[3] = system: Rattus norvegicus; experiment: In vivo inhibition of galactitol accumulation in sciatic nerves of rat at 26 mg/kg/day; Not significant; type: functional, organism-based; details: Sciatic nerve
[4] = target: Aldo-keto reductase family 1 member B1 (Bos taurus) (UniProt P16116); experiment: In vitro % decrease of aldose reductase was measured in isolated partially purified bovine lens preparations at 10e-7 M concentration; Not active
[5] = system: Rattus norvegicus; experiment: In vivo inhibition of galactitol accumulation in diaphragm of rat at 48 mg/kg/day; Not significant; type: functional, organism-based
[6] = system: Rattus norvegicus; experiment: In vivo inhibition of galactitol accumulation in sciatic nerves of rat at 48 mg/kg/day; type: functional; details: Sciatic nerve
[7] = target: Aldo-keto reductase family 1 member B1 (Bos taurus) (UniProt P16116); experiment: In vitro% decrease of aldose reductase was measured in isolated partially purified bovine lens preparations at 10e-7 M concentration
[8] = system: Rattus norvegicus; experiment: In vivo inhibition of galactitol accumulation in sciatic nerves of rat at 52 mg/kg/day; Not significant; type: functional, organism-based; details: Sciatic nerve
[9] = species on record: Rattus norvegicus; experiment: In vitro inhibition of sorbitol accumulation was measured in rat sciatic nerves incubated in the presence of 50 mM glucose at 10e-5 M concentration; type: functional, Sciatic nerve
[10] = species on record: Rattus norvegicus; experiment: In vitro inhibition of sorbitol accumulation was measured in rat sciatic nerves incubated in the presence of 50 mM glucose at 10e-6 M concentration; type: functional, Sciatic nerve
[11] = system: Rattus norvegicus; experiment: In vivo inhibition of galactitol accumulation in diaphragm of rat at 52 mg/kg/day; Not significant; type: functional, organism-based
[12] = system: Rattus norvegicus; experiment: In vivo inhibition of galactitol accumulation in diaphragm of rat at 50 mg/kg/day; Not significant; type: functional, organism-based
[13] = system: Rattus norvegicus; experiment: In vivo inhibition of galactitol accumulation in sciatic nerves of rat at 50 mg/kg/day; Not significant; type: functional, organism-based; details: Sciatic nerve
[14] = system: Rattus norvegicus; experiment: In vivo inhibition of galactitol accumulation in diaphragm of rat at 50 mg/kg/day; type: functional
[15] = system: Rattus norvegicus; experiment: In vivo inhibition of galactitol accumulation in diaphragm of rat at 47 mg/kg/day; Not significant; type: functional, organism-based
[16] = system: Rattus norvegicus; experiment: In vivo inhibition of galactitol accumulation in sciatic nerves of rat at 47 mg/kg/day; Not significant; type: functional, organism-based; details: Sciatic nerve
[17] = system: Rattus norvegicus; experiment: In vivo inhibition of galactitol accumulation in sciatic nerves of rat at 20 mg/kg/day; Not significant; type: functional, organism-based; details: Sciatic nerve
[18] = system: Rattus norvegicus; experiment: In vivo inhibition of galactitol accumulation in sciatic nerves of rat at 24 mg/kg/day; type: functional; details: Sciatic nerve
[19] = system: Rattus norvegicus; experiment: In vivo inhibition of galactitol accumulation in diaphragm of rat at 20 mg/kg/day; Not significant; type: functional, organism-based
[20] = system: Rattus norvegicus; experiment: In vivo inhibition of galactitol accumulation in diaphragm of rat at 24 mg/kg/day; type: functional
[21] = system: Rattus norvegicus; experiment: In vivo inhibition of galactitol accumulation in diaphragm of rat at 27 mg/kg/day; type: functional
[22] = system: Rattus norvegicus; experiment: In vivo inhibition of galactitol accumulation in sciatic nerves of rat at 27 mg/kg/day; Not significant; type: functional, organism-based; details: Sciatic nerve
[23] = system: Rattus norvegicus; experiment: In vivo inhibition of galactitol accumulation in diaphragm of rat at 5 mg/kg/day; type: functional
[24] = system: Rattus norvegicus; experiment: In vivo inhibition of galactitol accumulation in sciatic nerves of rat at 10 mg/kg/day; type: functional; details: Sciatic nerve
[25] = system: Rattus norvegicus; experiment: In vivo inhibition of galactitol accumulation in sciatic nerves of rat at 5 mg/kg/day; type: functional; details: Sciatic nerve
[26] = system: Rattus norvegicus; experiment: In vivo inhibition of galactitol accumulation in diaphragm of rat at 10 mg/kg/day; type: functional
[27] = system: Rattus norvegicus; experiment: In vivo inhibition of galactitol accumulation in sciatic nerves of rat at 2 mg/kg/day; Not significant; type: functional, organism-based; details: Sciatic nerve
[28] = system: Rattus norvegicus; experiment: In vivo inhibition of galactitol accumulation in diaphragm of rat at 49 mg/kg/day; type: functional
[29] = system: Rattus norvegicus; experiment: In vivo inhibition of galactitol accumulation in sciatic nerves of rat at 49 mg/kg/day; type: functional; details: Sciatic nerve
[30] = system: Rattus norvegicus; experiment: In vivo inhibition of galactitol accumulation in sciatic nerves of rat at 24 mg/kg/day; Not significant; type: functional, organism-based; details: Sciatic nerve
[31] = target: Aldo-keto reductase family 1 member B1 (Bos taurus) (UniProt P16116); experiment: In vitro % decrease of aldose reductase was measured in isolated partially purified bovine lens preparations at 10e-6 M concentration
[32] = system: Rattus norvegicus; experiment: In vivo inhibition of galactitol accumulation in diaphragm of rat at 48 mg/kg/day; type: functional

In the case of `COc1ccc2c(C(=S)N(C)CC(=O)O)c(OCc3ccccc3)ccc2c1C(F)(F)F`, the inhibition [1] is reported as 84%, the inhibition in vivo at 26 mg/kg/day [2] is reported as 80% and the inhibition [3] is reported as “inactive”.
With `CCCCc1ccc2c(C(F)(F)F)c(OC)ccc2c1C(=O)N(C)CC(N)=O` the inhibition [4] was “inactive”, the inhibition [5] was “inactive” and the inhibition in vivo at 48 mg/kg/day [6] was 30%.
In the case of `COc1ccc2c(C(=O)N(C)CC(=O)O)cc(Cc3ccc(Br)cc3F)cc2c1Br`, the inhibition [7] is reported as 66%, the inhibition [8] is reported as “inactive” and the Inhibition [9] is reported as 92%. For the same compound, the Inhibition [10] was 63% and the inhibition [11] was “inactive”.
With `COc1ccc2c(C(=O)N(C)CC(=O)O)c(SC)ccc2c1C(F)(F)F` the inhibition [1] was 69%, the inhibition [12] was “inactive” and the inhibition [13] was “inactive”. For the same compound, the Inhibition [9] was 60% and the Inhibition [10] was 41%.
For `CCOC(=O)N(CC(=O)O)C(=O)c1c(Cl)ccc2c(C(F)(F)F)c(OC)ccc12`, the inhibition [1] was 79%, the inhibition in vivo at 50 mg/kg/day [14] was 47% and the inhibition [13] was “inactive”. For the same compound, the Inhibition [9] was 79% and the Inhibition [10] was 54%.
`CCOC(=O)N(CC(=O)O)C(=O)c1cc(Br)cc2c(Br)c(OC)ccc12` was tested, and the inhibition [1] was 84%, the inhibition [15] was “inactive” and the inhibition [16] was “inactive”.
`COc1ccc2c(C(=O)N(C)CC(=O)O)cc(-c3ccccc3)cc2c1C(F)(F)F` was tested, and the inhibition [1] was 63%, the inhibition [12] was “inactive” and the inhibition [13] was “inactive”. For the same compound, the Inhibition [9] was 77% and the Inhibition [10] was 32%.
`COc1ccc2c(C(=S)N(C)CC(N)=O)cc(C)cc2c1Br` was tested, and the inhibition [4] was “inactive”, the inhibition [17] was “inactive” and the inhibition in vivo at 24 mg/kg/day [18] was 68%. For the same compound, the inhibition [19] was “inactive” and the inhibition in vivo at 24 mg/kg/day [20] was 70%.
For `CCOC(=O)N(CC(=O)O)C(=O)c1c(OCC(F)(F)F)ccc2c(C(F)(F)F)c(OC)ccc12`, the inhibition [1] was 78%, the inhibition in vivo at 27 mg/kg/day [21] was 39% and the inhibition [22] was “inactive”. For the same compound, the Inhibition [9] was 72% and the Inhibition [10] was 42%.
`COC(=O)N(CC(=O)O)C(=O)c1c(OCC(F)(F)F)ccc2c(C(F)(F)F)c(OC)ccc12` was tested, and the inhibition [1] was 83%, the inhibition in vivo at 27 mg/kg/day [21] was 49% and the inhibition [22] was “inactive”. It also gave an Inhibition [9] of 64% and an Inhibition [10] of 36%.
For `CCOC(=O)NC(=O)CN(C)C(=O)c1c(F)ccc2c(C(F)(F)F)c(OC)ccc12`, the inhibition [4] was “inactive”, the inhibition in vivo at 5 mg/kg/day [23] was 22% and the inhibition in vivo at 10 mg/kg/day [24] was 59%. For the same compound, the inhibition in vivo at 5 mg/kg/day [25] was 36% and the inhibition in vivo at 10 mg/kg/day [26] was 41%.
For `COc1ccc2c(C(=S)N(C)CC(N)=O)c(F)ccc2c1C(F)(F)F`, the inhibition [27] was “inactive”, the inhibition in vivo at 5 mg/kg/day [23] was 80% and the inhibition in vivo at 10 mg/kg/day [24] was 54%. For the same compound, the inhibition in vivo at 5 mg/kg/day [25] was 33%.
Compound `COC(=O)N(CC(=O)O)C(=O)c1c(OC)ccc2c(C(F)(F)F)c(OC)ccc12` has an inhibition [1] of 83%, an inhibition in vivo at 49 mg/kg/day [28] of 33% and an inhibition in vivo at 49 mg/kg/day [29] of 36%.
With `COc1ccc2c(C(=S)N(C)CC(=O)O)c(Oc3ccccc3)ccc2c1C(F)(F)F` the inhibition [1] was 89%, the inhibition [30] was “inactive” and the inhibition in vivo at 24 mg/kg/day [20] was 83%.
In the case of `COc1ccc2c(C(=O)N(C)CC(=O)O)c(C(C)(C)C)ccc2c1C(F)(F)F`, the inhibition [31] is reported as 23%, the inhibition [1] is reported as 6% and the inhibition [15] is reported as “inactive”. The inhibition [16] was “inactive”.
Compound `COc1ccc2c(C(=O)N(C)CC(=O)O)c(Oc3ccccc3)ccc2c1C(F)(F)F` has an inhibition [1] of 83%, an inhibition in vivo at 48 mg/kg/day [32] of 67% and an inhibition in vivo at 48 mg/kg/day [6] of 32%. It also gave an Inhibition [9] of 78% and an Inhibition [10] of 45%.
`COC(=O)N(CC(=O)O)C(=O)c1c(Cl)ccc2c(C(F)(F)F)c(OC)ccc12` gave an inhibition [1] of 85%, an inhibition in vivo at 26 mg/kg/day [2] of 68% and an Inhibition [9] of 75%. It also gave an Inhibition [10] of 49%.
For `COc1ccc2c(C(=O)N(C)CC(N)=O)c(Cl)ccc2c1C(F)(F)F`, the inhibition [4] was “inactive”, the inhibition in vivo at 24 mg/kg/day [18] was 62% and the inhibition in vivo at 24 mg/kg/day [20] was 53%.
